Source: PubChem BioAssay (NCI)
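Dose response: 5 concentrations. Exposure: 48 h. Format: 96-well plates. Endpoint: linear interpolation; highest concentration if not reached. Here, GI50 denotes the concentration required for 50% inhibition of growth. TGI: total growth inhibition.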

Experiments:
Assay in all cases: DTP human tumour cell line panel, 48 h
SW-620 colon = system: SW-620 colon
SF-268 CNS = system: SF-268 CNS
NCI-H23 lung = system: NCI-H23 lung
A549 NSCLC = system: A549 NSCLC
SF-295 CNS = system: SF-295 CNS
K-562 leukemia = system: K-562 leukemia
CAKI-1 renal = system: CAKI-1 renal
TK-10 renal = system: TK-10 renal
SK-MEL-5 melanoma = system: SK-MEL-5 melanoma
CCRF-CEM leukemia = system: CCRF-CEM leukemia

Row | Structure (SMILES) | TGI (SW-620 colon) [µM] | TGI (SF-268 CNS) [µM] | TGI (NCI-H23 lung) [µM] | TGI (A549 NSCLC) [µM] | TGI (SF-295 CNS) [µM] | TGI (K-562 leukemia) [µM] | TGI (CAKI-1 renal) [µM] | TGI (TK-10 renal) [µM] | TGI (SK-MEL-5 melanoma) [µM] | TGI (CCRF-CEM leukemia) [µM] | GI50 (SF-268 CNS) [µM] | GI50 (NCI-H23 lung) [µM] | GI50 (A549 NSCLC) [µM] | GI50 (SF-295 CNS) [µM] | GI50 (K-562 leukemia) [µM] | GI50 (CAKI-1 renal) [µM] | GI50 (TK-10 renal) [µM] | GI50 (SK-MEL-5 melanoma) [µM] | GI50 (CCRF-CEM leukemia) [µM] | GI50 (SW-620 colon) [µM]
1 | CC/C(CC(=O)CCC(=O)Nc1ccc(C)c(C)c1)=N\NC(=O)C(N)=O | > 100 | > 100 | > 100 | > 100 | > 100 | > 100 | > 100 | > 100 | > 100 | > 100 |  |  |  |  |  |  |  |  |  | 
2 | COc1ccc(C#CC2=C(c3cc(OC)c(OC)c(OC)c3)C(=O)OC2)cc1 |  | > 50 | 17.3 | 38.8 | 43.5 | > 50 | 2.99 | > 50 | 11.9 | > 50 | 2.23 | 5.77 | 14.3 | 1.75 | 2.11 | 1.18 | 1.77 | 2.07 | 1.03 | 
3 | C#CC(=O)OCC#CCOC(=O)C#C | 40.6 | > 100 | 55 | > 100 | > 100 |  | 39.1 | 37.9 | > 100 | 35.4 |  |  |  |  |  |  |  |  |  | 
4 | Cc1ccc(NC(=O)/C(=N\NC(N)=O)c2c(O)c3ccccc3[nH]c2=O)cc1 | > 100 | > 100 | > 100 | > 100 | > 100 | > 100 | > 100 |  | > 100 | > 100 |  |  |  |  |  |  |  |  |  | 
5 | Cn1c(C(C)(C)OC(=O)Oc2ccccc2)cnc1[N+](=O)[O-] | > 100 | > 100 | > 100 | > 100 | > 100 | > 100 | > 100 | > 100 | > 100 |  |  |  |  |  |  |  |  |  |  | 
6 | CCCCN1CCN(c2ccc3nc(-c4ccc5nc(-c6ccc(OCC)c(OCC)c6)[nH]c5c4)[nH]c3c2)CC1 | 1.79 | 22 |  |  |  | 2.27 | 2.52 | 5.17 | 3.16 | 3.06 | 2.66 |  |  |  | 0.529 | 1.04 | 1.66 | 1.09 | 0.538 | 0.474
7 | O=[N+]([O-])c1ccc(COc2cccc3cccnc23)cc1 |  | 68.7 | > 100 | > 100 | > 100 | 35.9 | 75 | 52.5 | 58.4 | 23.7 |  |  |  |  |  |  |  |  |  | 
8 | CC(=O)c1cccc(NC(=O)c2ccc(NC3=C(Cl)C(=O)N(Cc4ccccc4)C3=O)cc2)c1 | > 100 | 98.9 | 43.7 | > 100 | 47.8 | > 100 | 3.05 |  | 27.7 |  | 22.2 | 23 | 25.8 | 15.3 | 8.37 | 1.61 |  | 12.5 |  | 5.87
9 | C[n+]1c(/C=C/c2ccc(/C=N/NC(=O)c3ccc(C(=O)N/N=C/c4ccc(/C=C/c5cn6ccccc6[n+]5C)cc4)cc3)cc2)cn2ccccc21 | > 100 | > 100 | > 100 | > 100 | > 100 |  | > 100 | > 100 | > 100 | 49.8 |  |  |  |  |  |  |  |  |  | 
10 | COc1cc2ccc(CC(N)=O)cc2cc1OC | > 100 | > 100 | > 100 | > 100 | > 100 | > 100 |  | > 100 | > 100 | > 100 |  |  |  |  |  |  |  |  |  | 
11 | COc1ccc(C(=O)OC2C(OC3C(O)COC(O[C@H]4C[C@H]5[C@@H]6CC=C7C[C@@H](O)CC[C@]7(C)[C@H]6CC[C@]5(C)[C@H]4[C@H](C)C(=O)CCC(C)C)C3OC(C)=O)OCC(O)C2O)cc1 (some centres not stated) | 0.304 | 1.46 | 3.37 | 9.95 | < 0.003 |  | 0.349 | 6.6 | 0.0204 |  | < 0.003 | 0.0144 | < 0.003 | < 0.003 |  | < 0.003 | 0.0148 | < 0.003 |  | < 0.003
12 | CN1C(=O)C(=CN(C)c2ccccc2)C(=O)N(C)C1=O | > 100 |  |  | > 100 | > 100 | > 100 | > 100 | > 100 | > 100 | > 100 |  |  |  |  |  |  |  |  |  | 
13 | N=C(N)SCc1ccc([N+](=O)[O-])cc1[N+](=O)[O-] |  | 69.8 | 36.2 | 66.4 | > 100 | 21 | 15.8 | 19.7 | 19.6 | > 100 | 13.9 | 10.6 | 21.6 | 31.3 | 3.42 | 4.86 | 5.9 | 6.38 | 3.77 | 
14 | COC(=O)/C(=C\c1c(-c2ccccc2)[nH]c2ccccc12)S(C)(=O)=O | 15.9 | 18.3 | 41.8 | 98.4 | 19.9 |  | 82.6 | > 100 |  | > 100 | 4.32 | 7.95 | 5.26 | 3.13 |  | 1.83 | 7.71 |  | 7.62 | 2.92
15 | O=S(=O)(NCCO)c1cc[c]([Sb](=[O])([OH])[OH])cc1 | > 100 | > 100 | > 100 | > 100 | > 100 | > 100 | > 100 | > 100 | > 100 |  | > 100 | > 100 | > 100 | > 100 | > 100 | > 100 | > 100 | > 100 |  | > 100
16 | Cc1cnc(SCCN2CCN(C)CC2)nc1-c1cc2ccccc2s1 | 24.7 |  | 34.3 | 16 | 21.2 |  | 16.4 | 33.1 | 14.6 | 14.2 |  |  |  |  |  |  |  |  |  | 
17 | Cc1cc(NS(=O)(=O)c2ccc(Nc3c4ccccc4nc4c(C(=O)Nc5ccc(S(=O)(=O)N=C(N)N)cc5)ccc(Cl)c34)cc2)no1 |  | 63.2 | 92.6 | > 100 | > 100 | > 100 | > 100 | > 100 | > 100 |  |  |  |  |  |  |  |  |  |  | 
18 | CSc1nc(N)c2c(n1)NC(c1ccccc1)C1CCc3ccccc3C1=N2 (configuration not stated) |  | > 100 | > 100 | > 100 | > 100 | > 100 | > 100 | > 100 | > 100 | > 100 | > 100 | 6.16 | > 100 | 25.6 | 4.12 | 31.3 | > 100 | 4.79 | 3.33 | 
